pEC50, pIC50: −log10 of the molar value. “Also recorded” adds a separate entry of the source. Read-outs that look alike come from different tables or passages of the source.
Legend:
[1] = test system: dnc (plasmid pADDROSF, cDNA truncated at 5' end); experiment: Hydrolysis of 3H cAMP by yeast extracts (Dunce-like PDE clones); type: biochemical, Drosophila; conditions: 1 μM 3H cAMP, SD in parentheses
[2] = target: T1, dnc (plasmid pADDROSC, full-length) (Drosophila melanogaster, UniProt P12252); experiment: biochemical
T1 sequence (P12252 1-701 isoform P12252-3): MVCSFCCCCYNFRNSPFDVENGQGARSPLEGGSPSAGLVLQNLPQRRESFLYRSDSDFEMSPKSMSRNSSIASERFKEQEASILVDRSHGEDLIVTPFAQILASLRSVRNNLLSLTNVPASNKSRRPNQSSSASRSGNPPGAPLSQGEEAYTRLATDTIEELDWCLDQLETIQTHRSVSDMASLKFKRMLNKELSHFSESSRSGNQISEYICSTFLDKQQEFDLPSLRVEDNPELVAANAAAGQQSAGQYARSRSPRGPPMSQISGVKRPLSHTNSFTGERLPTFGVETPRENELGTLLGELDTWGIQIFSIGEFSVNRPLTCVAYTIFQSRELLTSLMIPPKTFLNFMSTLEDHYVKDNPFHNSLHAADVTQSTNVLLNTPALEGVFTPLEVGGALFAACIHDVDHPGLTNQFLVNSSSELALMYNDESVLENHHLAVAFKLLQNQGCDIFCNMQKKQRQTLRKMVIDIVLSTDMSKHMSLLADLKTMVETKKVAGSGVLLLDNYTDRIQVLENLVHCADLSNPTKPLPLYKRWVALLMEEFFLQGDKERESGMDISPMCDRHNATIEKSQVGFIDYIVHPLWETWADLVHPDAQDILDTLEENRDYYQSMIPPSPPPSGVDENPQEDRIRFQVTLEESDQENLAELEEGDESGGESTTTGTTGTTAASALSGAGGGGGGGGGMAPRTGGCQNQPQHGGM

[3] = test system: human dunce-like PDEs (three human clones); experiment: Inhibition and kinetics of the human dunce-like PDEs; type: biochemical; conditions: for IC50s fold higher than for their specific PDE classes: compared with literature values for the inhibitors' own PDE classes; for pIC50: range over the human clones, read-out: IC50s for the human clones
[4] = test system: DPDE2 (plasmid pADH46R, cDNA truncated at 5' end); conditions: 1 μM 3H cAMP, SD in parentheses
[5] = test system: DPDE4 (plasmid pADH72, cDNA truncated at 5' end); conditions: 1 μM 3H cAMP, SD in parentheses
[6] = target: T2, DPDE4 (plasmid pADH72C) (Homo sapiens, UniProt Q07343); conditions: 1 μM 3H cAMP, SD in parentheses
T2 sequence (Q07343 whole entry, the tested form may be a part): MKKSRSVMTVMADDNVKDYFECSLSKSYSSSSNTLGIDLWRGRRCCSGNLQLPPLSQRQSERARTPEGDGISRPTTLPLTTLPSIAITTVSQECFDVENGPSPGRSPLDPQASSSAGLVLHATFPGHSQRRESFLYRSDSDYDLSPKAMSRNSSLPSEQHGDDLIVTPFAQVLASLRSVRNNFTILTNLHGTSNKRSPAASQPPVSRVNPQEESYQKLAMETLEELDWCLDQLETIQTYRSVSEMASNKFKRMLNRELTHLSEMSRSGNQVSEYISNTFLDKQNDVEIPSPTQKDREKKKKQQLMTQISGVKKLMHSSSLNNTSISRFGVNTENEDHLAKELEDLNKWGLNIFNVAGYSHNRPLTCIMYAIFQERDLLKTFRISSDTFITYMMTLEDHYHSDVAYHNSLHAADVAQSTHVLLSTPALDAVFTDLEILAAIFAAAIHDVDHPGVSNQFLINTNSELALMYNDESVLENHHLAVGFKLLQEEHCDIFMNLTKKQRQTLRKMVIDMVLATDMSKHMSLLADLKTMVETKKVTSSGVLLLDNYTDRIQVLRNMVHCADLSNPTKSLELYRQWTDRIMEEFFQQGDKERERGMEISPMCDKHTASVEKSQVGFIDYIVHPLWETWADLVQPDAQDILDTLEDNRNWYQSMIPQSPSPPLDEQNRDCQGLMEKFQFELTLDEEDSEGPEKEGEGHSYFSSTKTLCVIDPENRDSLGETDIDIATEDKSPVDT

[7] = test system: DPDE3 (plasmid pADH43, cDNA truncated at 5' end); conditions: 1 μM 3H cAMP, SD in parentheses
[8] = test system: Drosophila dnc encoded PDEs; experiment: Inhibition and kinetics of dnc encoded PDEs; type: biochemical; conditions: dnc gene product
[9] = target: T3, rat DPD phosphodiesterase (Rattus norvegicus, UniProt P14646); experiment: Inhibition of phosphodiesterases by chemicals, cell free extracts of 10DAB yeast; type: biochemical
T3 construct: A large open reading frame of 562 codons was found; The first ATG appears at codon 46; made in house; host or cells: S. cerevisiae 10DAB (pde1-, pde2-), crude extract, vector pADNS
T3 sequence (P14646 220-736): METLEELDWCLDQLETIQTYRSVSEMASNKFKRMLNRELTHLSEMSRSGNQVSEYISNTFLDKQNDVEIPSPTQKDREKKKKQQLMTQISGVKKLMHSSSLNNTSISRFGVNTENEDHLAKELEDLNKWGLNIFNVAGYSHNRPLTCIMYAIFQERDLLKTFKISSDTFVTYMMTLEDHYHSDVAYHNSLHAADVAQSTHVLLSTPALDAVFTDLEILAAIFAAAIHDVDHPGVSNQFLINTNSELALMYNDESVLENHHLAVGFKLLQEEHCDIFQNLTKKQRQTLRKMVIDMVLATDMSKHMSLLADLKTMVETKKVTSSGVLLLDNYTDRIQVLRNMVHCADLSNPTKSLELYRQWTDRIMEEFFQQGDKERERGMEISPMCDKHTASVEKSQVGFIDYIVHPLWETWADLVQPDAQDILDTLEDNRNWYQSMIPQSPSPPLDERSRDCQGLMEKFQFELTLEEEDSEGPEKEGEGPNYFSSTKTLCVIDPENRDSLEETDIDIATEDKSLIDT

[10] = target: T2, DPDE4 (plasmid pADH72C); experiment: biochemical
[11] = target: yeast PDE2 (Saccharomyces cerevisiae, UniProt P06776); experiment: Inhibition of phosphodiesterases by chemicals, cell free extracts of 10DAB yeast
yeast PDE2, sequence (P06776 whole entry): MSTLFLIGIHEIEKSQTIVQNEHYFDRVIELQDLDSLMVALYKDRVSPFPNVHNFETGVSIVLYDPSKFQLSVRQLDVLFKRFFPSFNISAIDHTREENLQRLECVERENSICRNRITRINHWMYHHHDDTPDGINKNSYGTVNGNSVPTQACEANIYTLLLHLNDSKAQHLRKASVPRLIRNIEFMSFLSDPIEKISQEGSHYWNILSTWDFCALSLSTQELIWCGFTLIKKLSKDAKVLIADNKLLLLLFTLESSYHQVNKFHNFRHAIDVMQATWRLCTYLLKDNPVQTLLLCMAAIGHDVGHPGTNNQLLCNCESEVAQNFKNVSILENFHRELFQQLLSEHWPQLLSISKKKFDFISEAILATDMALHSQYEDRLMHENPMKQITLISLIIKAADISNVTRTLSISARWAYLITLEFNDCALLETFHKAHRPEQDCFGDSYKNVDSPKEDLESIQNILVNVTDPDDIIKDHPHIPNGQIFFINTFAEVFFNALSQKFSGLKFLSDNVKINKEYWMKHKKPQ

[12] = test system: yeast strain 10DAB transformed with pAD72 (human family IV phosphodiesterase); experiment: Whole cell screen: heat treatment viability of transformed yeast; conditions: 2 h at 30° C. then 50° C. for 30 min; for effect on viable cells of the culture after heat treatment (in words): concentrations up to 100 μM
[13] = target: pJC44x human cyclic AMP phosphodiesterase; experiment: Phosphodiesterase activity of 10DAB yeast extract expressing human cDNA (kinetics, inhibitor sensitivity); conditions: read-out: EC50 (inhibitor concentration at 50% enzyme velocity); 1.0 μM cAMP
[14] = target: pL22 Met (pTM22-like) human cyclic AMP phosphodiesterase (Homo sapiens, UniProt Q13946); experiment: as above
pL22 Met (pTM22-like) human cyclic AMP phosphodiesterase, sequence (Q13946 with tags, fused parts or gaps): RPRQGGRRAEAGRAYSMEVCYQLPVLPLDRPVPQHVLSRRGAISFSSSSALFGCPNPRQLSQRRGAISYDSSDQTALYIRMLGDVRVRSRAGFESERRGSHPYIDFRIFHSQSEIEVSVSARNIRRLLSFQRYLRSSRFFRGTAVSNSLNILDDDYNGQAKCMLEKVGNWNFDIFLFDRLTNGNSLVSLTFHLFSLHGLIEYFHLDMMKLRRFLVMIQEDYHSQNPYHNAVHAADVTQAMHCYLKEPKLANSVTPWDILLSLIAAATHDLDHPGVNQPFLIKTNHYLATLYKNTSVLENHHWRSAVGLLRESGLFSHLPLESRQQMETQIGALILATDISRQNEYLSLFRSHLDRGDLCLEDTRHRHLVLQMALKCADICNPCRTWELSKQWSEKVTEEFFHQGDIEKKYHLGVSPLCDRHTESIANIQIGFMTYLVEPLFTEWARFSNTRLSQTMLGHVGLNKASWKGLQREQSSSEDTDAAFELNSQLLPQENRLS

[15] = test system: 10DAB cells expressing the cDNA of pRATDPD; experiment: Heat shock sensitivity of yeast expressing rat DPD; type: cell-based, S. cerevisiae; conditions: 100 μM for 40 minutes, then 50° C. for 30 minutes
Description: 10DAB cells, which are phosphodiesterase deficient, are sensitive to heat shock. As already discussed, when these cells acquire the capacity to express the cDNA of pRATDPD, they become resistant to heat shock. 10DAB cells expressing the cDNA of pRATDPD were maintained in rich medium (YPD) for three days at stationary phase. […] Control cultures were not treated with any inhibitor. These cultures were then heat shocked in glass tubes at 50° C. […] for 30 minutes. One microliter of each culture was plated.

[16] = test system: yeast containing RAS2^va119 expressing the rat DPD gene; experiment: Heat shock phenotype reversal screen; type: cell-based; conditions: resistant cells incubated in agent
Text: The second type of pharmacological screen is applicable even when the mammalian gene encodes a protein of undetermined function, and, thus, cannot be assayed by a biochemical activity. In this method, agents to be tested are applied or introduced directly to the genetically altered microbial host expressing the mammalian protein. Agents capable of inhibiting the mammalian gene or gene product are identified by their ability to reverse the phenotype originally corrected by expression of the mammalian protein in the altered host.
This procedure has been used for mammalian cDNAs encoding cyclic nucleotide phosphodiesterases and a yeast containing RAS2^va119 as the host strain. When the rat DPD gene is introduced into the heat shock sensitive host and expressed, the host strain becomes heat shock resistant. […] This same approach can be applied to assess other genes.

[17] = test system: cAMP phosphodiesterases encoded by cDNAs of pTM3, pTM72, pJC44x and pRATDPD; experiment: Biochemical analysis of cell lysates
[18] = target: T4, pRATDPD gene product (rat DPD cAMP phosphodiesterase) (Rattus norvegicus, UniProt P14646); conditions: cGMP 100 fold over substrate concentration (5 μM cAMP, cGMP up to 500 μM)
T4 sequence (P14646 220-736): T3 sequence (P14646 220-736)

| SMILES | pIC50 [1] | IC50s fold higher than for their specific PDE classes [3] | pIC50 [4] | pIC50 [5] | pIC50 [7] | pIC50 ([2]; read-out: IC50) | pIC50 [3] | pIC50 [8] | pEC50 [13] | pEC50 [14] | other results |
| --- | --- | --- | --- | --- | --- | --- | --- | --- | --- | --- | --- |
| CC(C)Cn1c(=O)n(C)c(=O)c2[nH]cnc21 [IBMX] | 4.96 |  | 5.03 | 4.82 | 5.00 | 4.92 |  |  |  |  | inhibition at 250 µM [9]: 87%; inhibition of the human dunce-like PDEs (in words) ([3]; no detectable difference in IC50 between clones): inhibited; pIC50 [10]: 4.96; inhibition at 250 µM [11]: 0% |
| Cc1[nH]c(=O)c(C#N)cc1-c1ccncc1 [Milrinone] | < 3.00 |  | 4.23 |  | 4.80 | < 3.00 |  |  | 4.52 | 4.52 | effect on viable cells of the culture after heat treatment (in words) [12]: no observable effect |
| CCCCOc1cc(CC2CNC(=O)N2)ccc1OC (centres unmarked) [RO 20-1724] |  |  |  |  |  |  | 5.00 to 6.00 | 3.00 | 5.52 | < 3.52 | inhibition at 0.1 µM [9]: 35%; inhibition at 1 µM [9]: 52%; inhibition at 10 µM [9]: 79%; inhibition at 100 µM [9]: 92%; inhibition of rat DPD enzymatic activity (in words) ([9]; listed as R020 1724): readily inhibited; also recorded: most effective inhibitors; inhibition at 100 µM [11]: 3% |
| COc1ccc(C2CNC(=O)C2)cc1OC1CCCC1 (centres unmarked) [Rolipram] | < 3.00 |  | 6.30 | […] | 6.74 |  | 6.30 to 6.70 | 3.00 | […] | < 3.52 | inhibition of rat DPD enzymatic activity (in words) [9]: readily inhibited; also recorded: most effective inhibitors; sensitivity to heat shock (in words) [15]: much more sensitive to heat shock; heat shock phenotype (in words) [16]: become heat shock sensitive again; pIC50 [2]: < 3.13; sensitivity of the cAMP phosphodiesterases to the agent (in words) [17]: sensitive; cells remaining viable out of approximately 150,000 cells ([12]; 100 μM): less than 10 cells; effect on viable cells of the culture after heat treatment (in words) [12]: reduced the number of viable cells |
| Cn1c(=O)c2[nH]cnc2n(C)c1=O [Theophylline] |  |  |  |  |  |  |  |  | 3.52 |  |  |

More lines, main results first:

| pIC50 [1] | IC50s fold higher than for their specific PDE classes [3] | pIC50 [4] | pIC50 [5] | pIC50 [7] | pIC50 ([2]; read-out: IC50) | SMILES | pIC50 [3] | pIC50 [8] | pEC50 [13] | pEC50 [14] | other results |
| --- | --- | --- | --- | --- | --- | --- | --- | --- | --- | --- | --- |
| 3.92 | 10 to 1000 fold | 3.66 | 3.66 | 3.80 |  | COCc1nc2c([nH]1)c(=O)n(C)c(=O)n2CC(C)C [8-Methoxy IBMX] |  |  |  |  | pIC50 ([2]; pADDR, 1 μM 3H cAMP, SD in parentheses, read-out: IC50): 3.77; pIC50 [6]: 3.72 |
| < 3.00 | 10 to 1000 fold | 3.85 | 4.26 | 4.05 | < 3.00 | CN(C(=O)CCCOc1ccc2[nH]c(=O)ccc2c1)C1CCCCC1 [Cilostamide] |  |  |  |  |  |
| 5.82 |  | 6.66 | 6.70 | 7.00 | 5.52 | CCCCn1c(=O)c2c(ncn2CC(C)=O)n(CCCC)c1=O [Denbufylline] | 5.00 to 6.00 | 5.52 to 6.00 |  |  |  |
| 3.89 | 10 to 1000 fold | 3.92 | 4.05 | 4.06 | 4.24 | CCCOc1ccccc1-c1nc2nn[nH]c2c(=O)[nH]1 [Zaprinast] |  |  |  |  |  |
| < 3.00 |  | < 3.00 | < 3.00 | < 3.00 | < 3.00 | Nc1nc2c(ncn2[C@@H]2O[C@@H]3COP(=O)(O)O[C@H]3[C@H]2O)c(=O)[nH]1 [cGMP] |  |  | < 3.52 | < 3.52 | inhibition of cAMP phosphodiesterase activity by cGMP [18]: did not inhibit; pIC50 [10]: < 3.00 |

From patent US6069240A, “Cloning by complementation and related processes” (priority 1998, dated 2000)
